Data as given in ChEMBL document CHEMBL5104167, “Development and profiling of mGlu7 NAMs with a range of saturable inhibition of agonist responses in vitro” (Bioorg Med Chem Lett, 2022).

Legend:
[1] = target: Metabotropic glutamate receptor 7 (Rattus norvegicus, UniProt P35400); assay: Negative allosteric modulation of rat mGlu7 in HEK cells expressing Galpha15 assessed as inhibition of L-AP4-induced response measured by calcium mobilization assay; assay type: functional, cell-based
[2] = target: T1, Metabotropic glutamate receptor 7 (Homo sapiens, UniProt Q14831)
T1 sequence (Q14831 whole entry): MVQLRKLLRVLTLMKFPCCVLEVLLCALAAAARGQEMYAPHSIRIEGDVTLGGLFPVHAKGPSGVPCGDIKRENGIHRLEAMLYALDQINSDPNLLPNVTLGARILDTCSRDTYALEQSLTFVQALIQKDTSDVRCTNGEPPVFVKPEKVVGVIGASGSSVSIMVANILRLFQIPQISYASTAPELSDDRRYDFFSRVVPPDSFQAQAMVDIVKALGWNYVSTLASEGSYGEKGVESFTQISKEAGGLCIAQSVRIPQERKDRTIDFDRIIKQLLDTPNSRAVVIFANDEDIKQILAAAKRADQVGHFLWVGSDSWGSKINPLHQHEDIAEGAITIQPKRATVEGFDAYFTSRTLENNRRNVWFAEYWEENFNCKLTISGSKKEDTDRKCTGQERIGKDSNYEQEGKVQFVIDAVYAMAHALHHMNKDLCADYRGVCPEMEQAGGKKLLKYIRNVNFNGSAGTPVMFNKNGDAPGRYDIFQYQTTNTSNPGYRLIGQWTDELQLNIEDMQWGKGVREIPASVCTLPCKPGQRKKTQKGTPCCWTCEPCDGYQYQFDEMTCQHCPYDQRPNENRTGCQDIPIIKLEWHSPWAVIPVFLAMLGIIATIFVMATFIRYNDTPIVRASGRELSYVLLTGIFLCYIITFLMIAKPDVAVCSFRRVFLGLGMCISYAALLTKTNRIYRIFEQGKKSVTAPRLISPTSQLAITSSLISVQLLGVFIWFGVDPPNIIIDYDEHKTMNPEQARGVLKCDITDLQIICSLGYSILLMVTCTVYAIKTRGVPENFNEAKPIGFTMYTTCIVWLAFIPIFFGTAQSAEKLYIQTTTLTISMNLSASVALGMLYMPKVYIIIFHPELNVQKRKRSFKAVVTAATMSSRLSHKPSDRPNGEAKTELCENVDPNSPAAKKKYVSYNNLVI

[3] = target: T1, Metabotropic glutamate receptor 7; remark: listed apart in the source
[4] = Ratio of drug level in brain to plasma in rat; assay type: ADME, cell-free
[5] = Plasma protein binding in rat assessed as unbound fraction; assay type: ADME, cell-free
[6] = Drug concentration in rat brain assessed as unbound fraction; assay type: ADME, tissue-based
[7] = filed as negative allosteric modulator

Metabotropic glutamate receptor 7 (Rattus norvegicus, UniProt P35400), sequence (P35400 whole entry): as the sequence (Q14831 whole entry) above, with R5G, A27V, N454H, S488T, A520S, D578N counted along it

SMILES	IC50 [1] [µM]	Emin [3, 7] [%]	IC50 [2] [µM]	Emin [3] [%]	further results
COc1cc(C(=O)Nc2cc(OC(F)(F)F)ccc2-n2cncn2)ccc1OC1CCC1	1		3.1	19	
COc1ccc(-c2nnc(-c3cc(OC(F)(F)F)ccc3-n3ccnc3)o2)cc1OC			3	0	Kp [4]: 4.9
COc1ccc(-c2nnc(-c3cc(OC(F)(F)F)ccc3-n3cncn3)o2)cc1OC	2	60	1.3		
COc1ccc(-c2nnc(-c3cc(Cl)ccc3-c3ccnn3C)o2)cc1OC					Fu [5]: 3.9%; fraction unbound [6]: 0.009
COc1ccc(-c2noc(-c3cc(Cl)cc(F)c3-n3cncn3)n2)c(F)c1OC	1	69			
COc1cc(C(=O)Nc2cc(OC(F)(F)F)ccc2-n2cncn2)ccc1OCC1CC1					Kp [4]: 2.4
COc1ccc(-c2nnc(-c3cc(OC(F)(F)F)ccc3-c3cn[nH]c3)o2)cc1OC	2		5.4	26	

Now from value to compound, other results behind:

IC50 [1] [µM]	Emin [3, 7] [%]	SMILES	IC50 [2] [µM]	Emin [3] [%]	further results
2.4		CCOC(=O)c1cnc2c(OC)cccc2c1-c1ccc(-c2cc(F)cnc2OC)nc1	4.57	22.4	
> 30	74	COc1ccc(-c2noc(-c3cc(Cl)c(F)cc3-n3cncn3)n2)cc1OC			
> 10	45	COc1ccc(-c2coc(-c3cc(OC(F)(F)F)ccc3-n3cncn3)n2)cc1OC			
0.263		COc1cc(OCC(=O)Nc2cc(OC(F)(F)F)ccc2-n2cncn2)ccc1OC1COC1	0.819	21.1	
> 30	59	COc1ccc(-c2noc(-c3cc(Cl)ccc3-n3cncn3)n2)c(F)c1OC			
